From publication PMC5218480 (PLoS ONE, 2017)

System: MV-4-11 cells
Experiment: Gene expression microarray analysis (Affymetrix PrimeView) and GSEA
Assay type: cell-based, human
Parameters: RFU PODN (11730768_x_at) / Fold change /veh PODN (11730768_x_at) / RFU LINC00158 (11744669_a_at) / Fold change /veh LINC00158 (11744669_a_at) / RFU DUSP10 (11751237_a_at) / Fold change /veh DUSP10 (11751237_a_at) / RFU ID3 (11757404_x_at) / Fold change /veh ID3 (11757404_x_at) / RFU PLEKHG5 (11737974_s_at) / Fold change /veh PLEKHG5 (11737974_s_at) / RFU LRRC4B (11730491_at) / Fold change /veh LRRC4B (11730491_at) / RFU GIMAP4 (11747438_a_at) / Fold change /veh GIMAP4 (11747438_a_at) / RFU KRT8 (11758183_x_at) / Fold change /veh KRT8 (11758183_x_at) / RFU CNN1 (11734310_a_at) / Fold change /veh CNN1 (11734310_a_at) / RFU VPS37D (11726825_at) / Fold change /veh VPS37D (11726825_at) / RFU C10orf10 (11716522_x_at) / Fold change /veh C10orf10 (11716522_x_at) / RFU KIR2DL2 /// KIR2DL4 /// KIR2DL5A /// KIR2DL5B /// KIR2DS1 /// KIR2DS2 /// KIR2DS3 /// KIR2DS4 /// KIR3DL3 /// KIR3DL3 /// KIR3DS1 (11738374_at) / Fold change /veh KIR2DL2 /// KIR2DL4 /// KIR2DL5A /// KIR2DL5B /// KIR2DS1 /// KIR2DS2 /// KIR2DS3 /// KIR2DS4 /// KIR3DL3 /// KIR3DL3 /// KIR3DS1 (11738374_at) / RFU C1QL1 (11718748_at) / Fold change /veh C1QL1 (11718748_at) / RFU TMPRSS4 (11747572_a_at) / Fold change /veh TMPRSS4 (11747572_a_at) / RFU HAMP (11756126_x_at) / Fold change /veh HAMP (11756126_x_at) / RFU RNFT2 (11725882_a_at) / Fold change /veh RNFT2 (11725882_a_at) / RFU NR4A2 (11747474_a_at) / Fold change /veh NR4A2 (11747474_a_at) / RFU ABCC12 (11746883_a_at) / Fold change /veh ABCC12 (11746883_a_at) / RFU TMEM136 (11760407_x_at) / Fold change /veh TMEM136 (11760407_x_at) / RFU CLDN22 /// WWC2 (11732394_at) / Fold change /veh CLDN22 /// WWC2 (11732394_at) / RFU HLA-DPB1 (11760878_x_at) / Fold change /veh HLA-DPB1 (11760878_x_at) / RFU SPINT1 (11716480_a_at) / Fold change /veh SPINT1 (11716480_a_at) / RFU GAP43 (11754022_s_at) / Fold change /veh GAP43 (11754022_s_at) / RFU A4GNT (11735810_at) / Fold change /veh A4GNT (11735810_at) / RFU PRB3 (11715151_x_at) / Fold change /veh PRB3 (11715151_x_at) / RFU TUBB4B (11761932_at) / Fold change /veh TUBB4B (11761932_at) / RFU CAPN14 (11732068_a_at) / Fold change /veh CAPN14 (11732068_a_at) / RFU TMCC2 (11721928_a_at) / Fold change /veh TMCC2 (11721928_a_at) / RFU IRGQ (11745062_a_at) / Fold change /veh IRGQ (11745062_a_at) / RFU FAM174B (11720279_a_at) / Fold change /veh FAM174B (11720279_a_at) / RFU TMPRSS4 (11748680_a_at) / Fold change /veh TMPRSS4 (11748680_a_at) / RFU FAM212B (11763350_a_at) / Fold change /veh FAM212B (11763350_a_at) / RFU PLEKHG5 (11743358_a_at) / Fold change /veh PLEKHG5 (11743358_a_at) / RFU ZSCAN30 (11745921_a_at) / Fold change /veh ZSCAN30 (11745921_a_at) / RFU CMKLR1 (11741424_a_at) / Fold change /veh CMKLR1 (11741424_a_at) / RFU LOC101060620 /// MAPK8IP1 (11723275_at) / Fold change /veh LOC101060620 /// MAPK8IP1 (11723275_at) / RFU SPTSSB (11747773_x_at) / Fold change /veh SPTSSB (11747773_x_at) / RFU PRSS12 (11739890_at) / Fold change /veh PRSS12 (11739890_at) / RFU BIN1 (11741810_x_at) / Fold change /veh BIN1 (11741810_x_at) / RFU WNT11 (11732464_a_at) / Fold change /veh WNT11 (11732464_a_at) / RFU C10orf10 (11716521_a_at) / Fold change /veh C10orf10 (11716521_a_at) / RFU C5orf56 (11738089_at) / Fold change /veh C5orf56 (11738089_at) / RFU CYB561 (11721691_x_at) / Fold change /veh CYB561 (11721691_x_at) / RFU ANKRD19P (11752326_a_at) / Fold change /veh ANKRD19P (11752326_a_at) / RFU OR2T12 /// OR2T33 /// OR2T8 (11738714_s_at) / Fold change /veh OR2T12 /// OR2T33 /// OR2T8 (11738714_s_at) / RFU VCAN (11748164_a_at) / Fold change /veh VCAN (11748164_a_at) / RFU JSRP1 (11732532_at) / Fold change /veh JSRP1 (11732532_at) / RFU KRTAP10-11 (11738290_x_at) / Fold change /veh KRTAP10-11 (11738290_x_at) / RFU MYO3A (11730013_a_at) / Fold change /veh MYO3A (11730013_a_at) / RFU EBF3 (11725865_a_at) / Fold change /veh EBF3 (11725865_a_at) / RFU CAMK2N1 (11719241_x_at) / Fold change /veh CAMK2N1 (11719241_x_at) / RFU C5orf56 (11738088_a_at) / Fold change /veh C5orf56 (11738088_a_at) / RFU OLFML3 (11715873_a_at) / Fold change /veh OLFML3 (11715873_a_at) / RFU LOC100653217 /// NTM (11731650_a_at) / Fold change /veh LOC100653217 /// NTM (11731650_a_at) / RFU MAPK11 (11762145_a_at) / Fold change /veh MAPK11 (11762145_a_at) / RFU FIZ1 (11724087_x_at) / Fold change /veh FIZ1 (11724087_x_at) / RFU OASL (11726364_x_at) / Fold change /veh OASL (11726364_x_at) / RFU SOX15 (11748057_x_at) / Fold change /veh SOX15 (11748057_x_at) / RFU CD79A (11719716_a_at) / Fold change /veh CD79A (11719716_a_at) / RFU HIST1H1D (11736915_at) / Fold change /veh HIST1H1D (11736915_at) / RFU CASKIN2 (11723855_a_at) / Fold change /veh CASKIN2 (11723855_a_at) / RFU LOC730098 (11760151_x_at) / Fold change /veh LOC730098 (11760151_x_at) / RFU OR4N2 (11742367_at) / Fold change /veh OR4N2 (11742367_at) / RFU PRRT2 (11749266_a_at) / Fold change /veh PRRT2 (11749266_a_at) / RFU SNX32 (11753110_a_at) / Fold change /veh SNX32 (11753110_a_at) / RFU CDHR5 (11726645_a_at) / Fold change /veh CDHR5 (11726645_a_at) / RFU RCAN1 (11760418_a_at) / Fold change /veh RCAN1 (11760418_a_at) / RFU FAM167A (11723789_a_at) / Fold change /veh FAM167A (11723789_a_at) / RFU FAM26E (11764081_at) / Fold change /veh FAM26E (11764081_at) / RFU ISYNA1 (11749810_s_at) / Fold change /veh ISYNA1 (11749810_s_at) / RFU ACY1 (11761880_at) / Fold change /veh ACY1 (11761880_at) / RFU 11764098_at / Fold change /veh 11764098_at / RFU SAMD14 (11745864_x_at) / Fold change /veh SAMD14 (11745864_x_at) / RFU NPB (11741838_a_at) / Fold change /veh NPB (11741838_a_at) / RFU TMPRSS6 (11731388_a_at) / Fold change /veh TMPRSS6 (11731388_a_at) / RFU KRTAP10-2 (11738614_at) / Fold change /veh KRTAP10-2 (11738614_at) / RFU ARHGAP8 /// PRR5-ARHGAP8 (11727945_x_at) / Fold change /veh ARHGAP8 /// PRR5-ARHGAP8 (11727945_x_at) / RFU KRTAP5-7 /// NADSYN1 (11734609_at) / Fold change /veh KRTAP5-7 /// NADSYN1 (11734609_at) / RFU RASL12 (11751679_a_at) / Fold change /veh RASL12 (11751679_a_at) / RFU CDKN2B (11736163_a_at) / Fold change /veh CDKN2B (11736163_a_at) / RFU PRF1 (11729649_at) / Fold change /veh PRF1 (11729649_at) / RFU, ZNF638 /// ZNF638-IT1 / Fold change vs veh, ZNF638 /// ZNF638-IT1 / RFU, PANK3 / Fold change vs veh, PANK3 / RFU, SH3YL1 / Fold change vs veh, SH3YL1 / RFU, ZEB2 / Fold change vs veh, ZEB2 / RFU, NRIP1 / Fold change vs veh, NRIP1 / RFU, PTTG1IP / Fold change vs veh, PTTG1IP / RFU, CAPN2 / Fold change vs veh, CAPN2 / RFU, MED14 / Fold change vs veh, MED14 / RFU, SNORA58 / Fold change vs veh, SNORA58 / RFU, C1orf63 / Fold change vs veh, C1orf63 / RFU, LRRFIP1 / Fold change vs veh, LRRFIP1 / RFU, NDUFAF7 / Fold change vs veh, NDUFAF7 / RFU, SLC12A2 / Fold change vs veh, SLC12A2 / RFU, IBTK / Fold change vs veh, IBTK / RFU, ESF1 / Fold change vs veh, ESF1 / Fold change vs veh, TMEM50B / RFU, TAOK1 / Fold change vs veh, TAOK1 / RFU, ACBD3 / Fold change vs veh, ACBD3 / RFU, TMA16 / Fold change vs veh, TMA16 / RFU, RWDD3 / Fold change vs veh, RWDD3 / RFU, BCAT1 / Fold change vs veh, BCAT1 / RFU, EDEM3 / Fold change vs veh, EDEM3 / RFU, TMEM33 / Fold change vs veh, TMEM33 / RFU, WDR75 / Fold change vs veh, WDR75 / RFU, AHCTF1 / Fold change vs veh, AHCTF1 / RFU, TFRC / Fold change vs veh, TFRC / RFU, ZDHHC17 / Fold change vs veh, ZDHHC17 / RFU, NOM1 / Fold change vs veh, NOM1 / RFU, ARL8B / Fold change vs veh, ARL8B / RFU, ZBTB11 / Fold change vs veh, ZBTB11 / RFU, TAMM41 / Fold change vs veh, TAMM41 / RFU, KIAA1704 /// LOC100996395 / Fold change vs veh, KIAA1704 /// LOC100996395 / RFU, ING1 / Fold change vs veh, ING1 / RFU, TRMT61B / Fold change vs veh, TRMT61B / RFU, FUBP3 / Fold change vs veh, FUBP3 / RFU, TP53 / Fold change vs veh, TP53 / RFU, TNKS2 / Fold change vs veh, TNKS2 / RFU, ZFP14 / Fold change vs veh, ZFP14 / RFU, ACTR2 / Fold change vs veh, ACTR2 / RFU, PPP3R1 / Fold change vs veh, PPP3R1 / RFU, PIK3R1 / Fold change vs veh, PIK3R1 / RFU, HNRNPA1 / Fold change vs veh, HNRNPA1 / RFU, RNF170 / Fold change vs veh, RNF170 / RFU, ZNF28 / Fold change vs veh, ZNF28 / RFU, RNGTT / Fold change vs veh, RNGTT / RFU, OGT / Fold change vs veh, OGT / RFU, BRD1 / Fold change vs veh, BRD1 / RFU, MARS / Fold change vs veh, MARS / RFU, ZNF655 / Fold change vs veh, ZNF655 / RFU, FAHD1 / Fold change vs veh, FAHD1 / RFU, BDP1 / Fold change vs veh, BDP1 / RFU, LRRCC1 / Fold change vs veh, LRRCC1 / RFU, ARID1A / Fold change vs veh, ARID1A / RFU, ZNF146 / Fold change vs veh, ZNF146 / RFU, ZNF330 / Fold change vs veh, ZNF330 / RFU, GPN3 / Fold change vs veh, GPN3 / RFU, C9orf123 / Fold change vs veh, C9orf123 / RFU, N4BP2L2 / Fold change vs veh, N4BP2L2 / RFU, ARFIP1 / Fold change vs veh, ARFIP1 / RFU, FAM179B / Fold change vs veh, FAM179B / RFU, BCL10 / Fold change vs veh, BCL10 / RFU, UHRF1BP1L / Fold change vs veh, UHRF1BP1L / RFU, BET1 / Fold change vs veh, BET1 / RFU, CNOT2 / Fold change vs veh, CNOT2 / RFU, ZNF268 / Fold change vs veh, ZNF268 / Fold change vs veh, ZNF507 / RFU, DGCR2 / Fold change vs veh, DGCR2 / RFU, WDSUB1 / Fold change vs veh, WDSUB1 / Fold change vs veh, HSP90B1 /// MIR3652 / RFU, ADSS / Fold change vs veh, ADSS / RFU, GK / Fold change vs veh, GK / RFU, ZNF148 / Fold change vs veh, ZNF148 / RFU, TAF9 / Fold change vs veh, TAF9 / RFU, SLC1A5 / Fold change vs veh, SLC1A5 / RFU, SLMO2 / Fold change vs veh, SLMO2 / RFU, ABCC4 / Fold change vs veh, ABCC4 / RFU, LOC101060439 /// RAP1B / Fold change vs veh, LOC101060439 /// RAP1B / RFU, RFX7 / Fold change vs veh, RFX7 / RFU, GTPBP10 / Fold change vs veh, GTPBP10 / RFU, CNEP1R1 / Fold change vs veh, CNEP1R1 / RFU, BIVM-ERCC5 /// ERCC5 / Fold change vs veh, BIVM-ERCC5 /// ERCC5 / RFU, ILF3 / Fold change vs veh, ILF3 / RFU 11762660_at / Fold change /veh 11762660_at / RFU VCAN (11757783_s_at) / Fold change /veh VCAN (11757783_s_at) / RFU DDX43 (11728927_at) / Fold change /veh DDX43 (11728927_at) / RFU KRT8 (11758188_x_at) / Fold change /veh KRT8 (11758188_x_at) / RFU NKD1 (11759106_at) / Fold change /veh NKD1 (11759106_at) / RFU SRD5A1 (11742802_a_at) / Fold change /veh SRD5A1 (11742802_a_at) / RFU TPSAB1 /// TPSB2 (11721975_s_at) / Fold change /veh TPSAB1 /// TPSB2 (11721975_s_at) / RFU GSTM3 (11746129_a_at) / Fold change /veh GSTM3 (11746129_a_at) / RFU IL23R (11737362_x_at) / Fold change /veh IL23R (11737362_x_at) / RFU TMEM51 (11727254_a_at) / Fold change /veh TMEM51 (11727254_a_at) / RFU PIWIL2 (11732686_x_at) / Fold change /veh PIWIL2 (11732686_x_at) / RFU ORM1 (11744905_x_at) / Fold change /veh ORM1 (11744905_x_at) / RFU CCDC152 (11743942_at) / Fold change /veh CCDC152 (11743942_at) / RFU ECM1 (11717891_a_at) / Fold change /veh ECM1 (11717891_a_at) / RFU IL23R (11748794_a_at) / Fold change /veh IL23R (11748794_a_at) / RFU TNFAIP8L3 (11732012_x_at) / Fold change /veh TNFAIP8L3 (11732012_x_at) / RFU MBOAT4 (11741988_at) / Fold change /veh MBOAT4 (11741988_at) / RFU 11764193_at / Fold change /veh 11764193_at / RFU TMEM53 (11763286_at) / Fold change /veh TMEM53 (11763286_at) / RFU MAGEB2 (11727129_at) / Fold change /veh MAGEB2 (11727129_at) / RFU TMEM200A (11744735_a_at) / Fold change /veh TMEM200A (11744735_a_at) / RFU CCDC152 (11751479_a_at) / Fold change /veh CCDC152 (11751479_a_at) / RFU FAM211A (11726209_a_at) / Fold change /veh FAM211A (11726209_a_at) / RFU RGS16 (11746705_a_at) / Fold change /veh RGS16 (11746705_a_at) / RFU VCAN (11755009_s_at) / Fold change /veh VCAN (11755009_s_at) / RFU RHOB (11743442_s_at) / Fold change /veh RHOB (11743442_s_at) / RFU RGS16 (11720943_a_at) / Fold change /veh RGS16 (11720943_a_at) / RFU RGS16 (11720944_at) / Fold change /veh RGS16 (11720944_at) / RFU, VPS4B / Fold change vs veh, VPS4B / RFU, CREB1 / Fold change vs veh, CREB1 / RFU, DNAJC13 / Fold change vs veh, DNAJC13 / RFU, GNAQ / Fold change vs veh, GNAQ / RFU, CDK5R1 / Fold change vs veh, CDK5R1 / RFU, ZRANB3 / Fold change vs veh, ZRANB3 / RFU, CUL4A / Fold change vs veh, CUL4A / RFU, CCNY / Fold change vs veh, CCNY / RFU, UFL1 / Fold change vs veh, UFL1 / RFU, COG3 / Fold change vs veh, COG3 / RFU, DIAPH2 / Fold change vs veh, DIAPH2 / RFU, SKA2 / Fold change vs veh, SKA2 / RFU, AFF3 / Fold change vs veh, AFF3 / RFU, LMF1 / Fold change vs veh, LMF1 / RFU, IPO11 / Fold change vs veh, IPO11 / RFU, DFFB / Fold change vs veh, DFFB / RFU, FOXP1 / Fold change vs veh, FOXP1 / RFU, CARD8 / Fold change vs veh, CARD8 / RFU, STRN3 / Fold change vs veh, STRN3 / RFU, ADK / Fold change vs veh, ADK / RFU, RASSF2 / Fold change vs veh, RASSF2 / RFU, WIPF1 / Fold change vs veh, WIPF1 / RFU, LARP1B / Fold change vs veh, LARP1B / RFU, RASA1 / Fold change vs veh, RASA1 / RFU, RB1 / Fold change vs veh, RB1 / RFU, PPFIA1 / Fold change vs veh, PPFIA1 / RFU, MAT2A / Fold change vs veh, MAT2A / RFU, CCT5 / Fold change vs veh, CCT5 / RFU, WDR92 / Fold change vs veh, WDR92 / RFU, CUX1 / Fold change vs veh, CUX1 / RFU, TTC7A / Fold change vs veh, TTC7A / RFU, TMEM135 / Fold change vs veh, TMEM135 / RFU, DEPTOR / Fold change vs veh, DEPTOR / RFU, CPM / Fold change vs veh, CPM / RFU, DNAJB6 / Fold change vs veh, DNAJB6 / RFU, CACNA2D3 / Fold change vs veh, CACNA2D3 / RFU, DTX4 / Fold change vs veh, DTX4 / RFU, TFCP2 / Fold change vs veh, TFCP2 / RFU, GMCL1 /// GMCL1P1 / Fold change vs veh, GMCL1 /// GMCL1P1 / RFU, AEBP2 / Fold change vs veh, AEBP2 / RFU, SNHG1 /// SNORD22 /// SNORD25 /// SNORD26 /// SNORD27 /// SNORD28 /// SNORD29 /// SNORD31 / Fold change vs veh, SNHG1 /// SNORD22 /// SNORD25 /// SNORD26 /// SNORD27 /// SNORD28 /// SNORD29 /// SNORD31 / Fold change (Aza/veh), C12orf56 (ProbeSet 11735607_a_at) / Fold change (ACY-1035/veh), C12orf56 (ProbeSet 11735607_a_at) / Fold change (Aza/veh), FGFR1OP (ProbeSet 11751329_s_at) / Fold change (ACY-1035/veh), FGFR1OP (ProbeSet 11751329_s_at) / Fold change (Aza/veh), VPS36 (ProbeSet 11739960_a_at) / Fold change (ACY-1035/veh), VPS36 (ProbeSet 11739960_a_at) / RFU SYPL1 (11715823_x_at) / Fold change /veh SYPL1 (11715823_x_at) / RFU IGFBP7 (11715501_s_at) / Fold change /veh IGFBP7 (11715501_s_at) / RFU REEP3 (11722064_at) / Fold change /veh REEP3 (11722064_at) / RFU IGLL1 (11728026_x_at) / Fold change /veh IGLL1 (11728026_x_at): dose or concentration left out as unconfirmed
Settings: ProbeSet 11763166_a_at; LIST B

**Q.** With `Nc1ccc(-c2cccs2)cc1NC(=O)c1ccc2c(c1)cc(C1CC1)n2CCN1CCOCC1` [ACY-1035] as the molecule, how does the “Fold change vs veh, MARS” value read?
**A.** The value was 1.14.
